We go through two molecules from US8945595B2, “Insect repellent and attractants” (The Regents of the University of California, priority 2009, dated 2015).

The test system of test [1] is CO2 sensitive A neuron of peg sensillum. The experiment in a line: activation of CO2 sensitive neuron with a volatile odorant. Conditions: indicated concentrations. It counts as cell-based, Culex quinquefasciatus. How it is done:
(§1) FIG. 2 depicts electrophysiology measurements of the peg sensillum on the mosquito maxillary palp. The palp, indicated in brown in the schematic of the mosquito head, has several peg sensilla. Each peg sensilla (grey club-like structure in the center) contains three olfactory neurons A, B and C as indicated, of which the ‘A’ neuron gives a robust and specific increase in frequency of action potentials in response to a stimulus of CO2. Extracellular single-unit recordings are performed by inserting a glass microelectrode into the peg sensilla, and puffing an odor such as CO2 towards the mosquito maxillary palps. The signal is amplified to obtain the trace of action potentials.
(§2) (a) Action potential traces from the peg sensillum of the maxillary palp show spike amplitudes from three neurons, where the spikes with the largest amplitude belongs to the CO2 sensitive A neuron. (b) 1 sec of the indicated dilution 2,3-butanedione is puffed to Aedes aegypti. (c) 1 sec of indicated odor is puffed to Anopheles gambiae. (d) butanone and (e) 2,3-butanedione are given to Culex quinquefasciatus at the indicated concentrations. PO=paraffin oil. n=5. Baseline activity subtracted. Error bars indicate SEM.

Test [2] has the same test system. The description is as above. It counts as cell-based, Aedes aegypti. As to conditions: 1 sec puff, indicated dilution. The protocol: as §1, §2
For another test, the system named is Or83b2 mutant flies. The experiment in a line: T-maze choice assay, avoidance behavior to CO2, Or83b2 mutant flies. It counts as in vivo, Drosophila. Conditions: odourant with CO2. The protocol:
(a) A t-maze is used to show preference to a test odor or to a solvent. Flies are starved 24 hrs prior to assay. All assays performed for 1-min in the dark. A negative preference index indicates avoidance. (a) Flies in a T-maze were offered a choice between a 15 ml tube infused with 0.1ml of CO2 prior to start of assay, and another that was infused with air. (b) wildtype and Or83b−/− flies were presented with CO2, a mixture of CO2 and 2,3-butanedione (d4on), or d4on alone. (c) Flies were exposed to 10 ul d4on 10^−2 for 1 min, allowed to recover for 2 min in clean air and then assayed for avoidance to CO2. A control exposure to 1 min of 2-methylphenol (2 mpol) at 10^−2 and then a recovery period of 2 min is also assayed for avoidance behavior to CO2. (d) Flies are exposed to d4on for 1 min, allowed to recover for 2 min, and then assayed for behavior to ethyl acetate (2AC). Behavior to 2AC without pre-exposure is also measured. […]
T-maze behavioral testing using Drosophila stress odour, CO2, and mixtures were using techniques known in the art, with some modifications. […] The avoidance response was calculated as a Preference Index (PI)=(number of flies in test arm−number of flies in control arm)/(total number of flies in assay). […] The avoidance response was calculated as a Preference Index (PI)=(number of flies in test arm−number of flies in control arm)/(total number of flies in assay). […]

For `CC(=O)C(C)=O` [2,3-butanedione], the “activation of CO2 sensitive neuron” value in test [1] and in test [2] was “activation” each time. The “avoidance behavior to CO2 (Preference Index)” value in the test on Or83b2 mutant flies is reported as “significantly reduced”.

As to `CCCCCCO` [1-hexanol], the “avoidance behavior to CO2 (Preference Index)” value with Or83b2 mutant flies was “significantly reduced”.
